System: Puccinia recondita
Experiment: Control of brown rust on wheat caused by Puccinia recondita (greenhouse, comparative)
Assay type: in vivo
Conditions: 500 ppm spray to run-off one day before inoculation; % diseased leaf area, visually assessed; untreated control 90
Method: The spray solutions were prepared in several steps:
The stock solution were prepared: a mixture of acetone and/or dimethylsulfoxide and the wetting agent/emulsifier Wettol, which is based on ethoxylated alkylphenoles, in a relation (volume) solvent-emulsifier of 99 to 1 was added to 25 mg of the compound to give a total of 5 ml. Water was then added to total volume of 100 ml.
This stock solution was diluted with the described solvent-emulsifier-water mixture to the given concentration.
The first two developed leaves of pot-grown wheat seedling were sprayed to run-off with an aqueous suspension, containing 500 ppm of active ingredient as described below. The next day the plants were inoculated with spores of Puccinia recondita. To ensure the success the artificial inoculation, the plants were transferred to a humid chamber without light and a relative humidity of 95 to 99% and 20 to 24° C. for 24 h. Then the trial plants were cultivated for 6 days in a greenhouse chamber at 20-24° C. and a relative humidity between 65 and 70%. The extent of fungal attack on the leaves was visually assessed as % diseased leaf area.

| SMILES | Disease level (%) |
| --- | --- |
| Cn1c(=O)c2sc3c(=O)n(C)c(=O)c3sc2c1=O | 80 |
| COn1c(=O)c2sc3c(=O)n(OC)c(=O)c3sc2c1=O [I-2, 2.6-Dimethoxy-1H.5H-[1.4]dithiino[2,3-c:5.6-c′]dipyrrol-1.3.5.7(2H.6H)tetrone] | 45 |

— patent US9253980B2 (priority 2011, dated 2016)
